According to patent US11136312B2, “3,4,5-trisubstituted-1,2,4-triazoles and 3,4,5-trisubstituted-3-thio-1,2,4-triazoles and uses thereof” (Board of Trustees of Southern Illinois University, priority 2017, dated 2021):

Assays:
[1] = target: human somatostatin receptor SSTR3 (Homo sapiens (Human), UniProt P32745); test: Competitive radioligand binding, 125I-Tyr-SRIF 14, membrane preparations; conditions: competitive binding vs 125I-Tyr-SRIF 14, human SSTR3 membranes; read-out: SST3
Description: (§1) Competitive radioligand binding experiments were performed using MEMBRANE TARGET Systems (Perkin-Elmer, Boston, Mass.) for human somatostatin receptors: SSTR1 (ES-520-M400UA), SSTR2A (ES-521-M400UA), SSTR3 (ES523-M400UA), SSTR4 (ES-524-M400UA) and SSTR5 (ES-522-M400UA) receptors. (See Table 1). Respective membrane receptor preparations were prepared in assay buffer (25 mM HEPES, 10 mM MgCl2, 1 mM CaCl2, 0.5% BSA, pH=7.4) at a 1:150 dilution. Binding assays were performed using 1251-Tyr-SRIF 14 (Perkin-Elmer, NEX 3890) dissolved in 1 mM HCl. Binding assays were performed in triplicate for each concentration of ligand in a total volume of 200 μL radioligand (25 μL ligand, 25 μL radioligand, 150 μL receptors) and incubated at room temperature for 90 minutes using a shaking table. Binding was terminated by filtration through GF/B glass fiber filters that were presoaked in 0.5% polyethyleneimine for a minimum of 4 hours. Filters were washed 9× with 1000 μL ice cold wash buffer (50 mM Tris-HCl, pH=7.4, 0.2% BSA). Filters were scored, transferred into plastic test tubes and counted in a gamma counter (Wizard2, Perkin-Elmer). Determination of the Ki for each compound was performed using non-linear regression with GraphPad PRISM-5 software (GraphPad Software, Inc., La Jolla, Calif.).

[2] = target: human somatostatin receptor SSTR2A (Homo sapiens (Human), UniProt P30874); test: as above; conditions: competitive binding vs 125I-Tyr-SRIF 14, human SSTR2A membranes; read-out: SST2
Sequence of human somatostatin receptor SSTR2A (P30874 whole entry): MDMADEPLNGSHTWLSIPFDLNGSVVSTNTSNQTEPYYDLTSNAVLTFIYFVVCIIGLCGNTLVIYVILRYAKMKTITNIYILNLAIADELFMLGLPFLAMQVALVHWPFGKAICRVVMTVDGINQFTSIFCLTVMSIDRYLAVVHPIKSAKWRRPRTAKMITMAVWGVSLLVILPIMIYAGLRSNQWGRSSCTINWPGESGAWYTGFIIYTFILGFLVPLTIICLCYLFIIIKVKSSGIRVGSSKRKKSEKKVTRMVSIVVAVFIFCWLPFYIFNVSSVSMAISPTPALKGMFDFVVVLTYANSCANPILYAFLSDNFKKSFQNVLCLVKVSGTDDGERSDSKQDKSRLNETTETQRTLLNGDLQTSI
Description: as §1, with “Respective” for “Competitive radioligand binding experiments were performed using MEMBRANE TARGET Systems (Perkin-Elmer, Boston, Mass.) for human somatostatin receptors: SSTR1 (ES-520-M400UA), SSTR2A (ES-521-M400UA), SSTR3 (ES523-M400UA), SSTR4 (ES-524-M400UA) and SSTR5 (ES-522-M400UA) receptors. (See Table 1). Respective”, “Binding assays were performed using 1251-Tyr-SRIF 14 (Perkin-Elmer, NEX 3890) dissolved in 1 mM HCl.” left out

[3] = target: CHO-K1 cells expressing human somatostatin SSTR4 (Homo sapiens (Human), UniProt P31391); test: Inhibition of forskolin stimulated cAMP, TR-FRET LANCE assay; assay type: cell-based; conditions: against 5 μM forskolin
Sequence of CHO-K1 cells expressing human somatostatin SSTR4 (P31391 whole entry): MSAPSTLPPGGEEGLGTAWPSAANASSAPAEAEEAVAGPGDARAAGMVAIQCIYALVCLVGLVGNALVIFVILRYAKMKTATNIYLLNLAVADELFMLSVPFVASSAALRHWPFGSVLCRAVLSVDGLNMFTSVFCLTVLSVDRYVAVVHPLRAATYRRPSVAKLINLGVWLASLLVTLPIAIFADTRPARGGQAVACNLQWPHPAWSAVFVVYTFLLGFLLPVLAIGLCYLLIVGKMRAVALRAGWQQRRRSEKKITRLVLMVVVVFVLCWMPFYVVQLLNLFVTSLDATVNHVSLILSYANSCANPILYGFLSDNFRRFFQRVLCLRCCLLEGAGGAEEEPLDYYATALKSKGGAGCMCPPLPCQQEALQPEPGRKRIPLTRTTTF
Description: Measurement of forskolin stimulated inhibition of cAMP was performed via time-resolved fluorescence resonance energy transfer (TR-FRET) LANCE assay (AD0262, PerkinElmer Life Science, Inc., Boston Mass.). […] LANCE cAMP assay was performed per manufacture instruction with assessment of respective compound, somatostatin-28 (Sigma-Aldrich Co., St. Louis, Mo.) as control agonist, against 5 μM forskolin, performed in triplicate across concentration curve. […] Data was calculated via GraphPad PRISM-5 software.

[4] = target: human somatostatin receptor SSTR5 (Homo sapiens (Human), UniProt P35346); test: Competitive radioligand binding, 125I-Tyr-SRIF 14, membrane preparations; conditions: competitive binding vs 125I-Tyr-SRIF 14, human SSTR5 membranes; read-out: SST5
Description: as §1, with “Respective” for “Competitive radioligand binding experiments were performed using MEMBRANE TARGET Systems (Perkin-Elmer, Boston, Mass.) for human somatostatin receptors: SSTR1 (ES-520-M400UA), SSTR2A (ES-521-M400UA), SSTR3 (ES523-M400UA), SSTR4 (ES-524-M400UA) and SSTR5 (ES-522-M400UA) receptors. (See Table 1). Respective”, “Binding assays were performed using 1251-Tyr-SRIF 14 (Perkin-Elmer, NEX 3890) dissolved in 1 mM HCl.” left out

[5] = target: human somatostatin receptor SSTR1 (Homo sapiens (Human), UniProt P30872); test: as above; conditions: competitive binding vs 125I-Tyr-SRIF 14, human SSTR1 membranes; read-out: SST1
Description: as §1, with “Respective” for “Competitive radioligand binding experiments were performed using MEMBRANE TARGET Systems (Perkin-Elmer, Boston, Mass.) for human somatostatin receptors: SSTR1 (ES-520-M400UA), SSTR2A (ES-521-M400UA), SSTR3 (ES523-M400UA), SSTR4 (ES-524-M400UA) and SSTR5 (ES-522-M400UA) receptors. (See Table 1). Respective”, “Binding assays were performed using 1251-Tyr-SRIF 14 (Perkin-Elmer, NEX 3890) dissolved in 1 mM HCl.” left out

Compound | Ki [1] | Ki [2] | EC50 [3] | Ki [4] | Ki [5]
c1ccc(Cc2nnc(Cc3c[nH]c4ccccc34)n2CCCc2c[nH]cn2)cc1 [SK-I-25, 3-((4-(3-(1H-imidazol-4-yl)propyl)-5-benzyl-4H-1,2,4-triazol-3-yl)methyl)-1H-indole] | 0.0017 µM | > 10 µM | 0.00203 µM | – | –
Fc1ccc2c(Cc3nnc(Cc4c[nH]c5cc(F)ccc45)n3CCCc3c[nH]cn3)c[nH]c2c1 [SK-I-124, 3,3′-((4-(3-(1H-imidazol-4-yl)propyl)-4H-1,2,4-triazol-3,5-diyl)bis(methylene))bis(6-fluoro-1H-indole)] | 1.74 µM | 0.64 µM | – | > 10 µM | 0.0978 µM
COc1ccc(Cc2nnc(Cc3c[nH]c4cc(F)ccc34)n2CCCc2c[nH]cn2)cc1 [SK-I-105, 3-((4-(3-(1H-imidazol-4-yl)propyl)-5-(4-methoxybenzyl)-4H-1,2,4-triazol-3-yl)methyl)-6-fluoro-1H-indole] | > 10 µM | 5.3 µM | – | > 10 µM | 1.08 µM
Fc1ccc(Cc2nnc(Cc3c[nH]c4cc(F)ccc34)n2CCCc2c[nH]cn2)cc1 [SK-I-91, 3-((4-(3-(1H-imidazol-4-yl)propyl)-5-(4-fluorobenzyl)-4H-1,2,4-triazol-3-yl)methyl)-6-fluoro-1H-indole] | > 10 µM | 3.97 µM | – | > 10 µM | 0.468 µM
